Source: the supplement of paper PMC11451515

Tests used:
Settings in all cases: 48 h
[1] = system: SEM cells; test: AUC of viability dose-response curve (% viability x log10 dose units); higher = less sensitive
Method in brief: (§1)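 Medium-adapted leukemia cells in 1536-well plates, at 500 or 1000 cells/well, were incubated for 48 h at 37°C with library compounds in DMSO at 11 threefold doses from 47 μM to 0.79 nM. CellTiter-Glo One luminescence normalised per plate to DMSO and cell-free wells was fitted with a four-parameter log-logistic model over log10 doses. Area under the curve was integrated from this fit by trapezoidal rule, with curves beyond full viability scaled and failed quality-control curves removed.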

[2] = system: P12-Ichikawa; test: as above
Method in brief: as §1

[3] = system: NOMO1; test: as above
Method in brief: as §1

[4] = system: SEM cells; test: cell viability relative to DMSO control; higher = less cytotoxic
Method in brief: (§2)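 Cells were incubated for 48 h at 37°C before CellTiter-Glo One luminescence was read. The cells were NOMO1 or SEM (500 cells/well) or P12-Ichikawa (1000 cells/well) leukemia cells, adapted for at least four passages in each medium and seeded in 1536-well plates (5 μl). Dosing used library compounds in DMSO applied by pin over 11 threefold points, 47 μM to 0.79 nM. Viability is the per-plate percentage of DMSO wells, with cell-free wells as background.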

[5] = system: P12-Ichikawa; test: as above
Method in brief: as §2

[6] = system: NOMO1; test: as above
Method in brief: as §2

O=C(Nc1nc2cccc(-c3ccc(CN4CC[S+](=O)([O-])CC4)cc3)n2n1)C1CC1
AUC of viability dose-response curve
Settings	[1]	[2]	[3]
HPLM + 10% dialyzed FBS	441	455	440
RPMI 5 mM glucose + 10% FBS	446	454	449
RPMI 5 mM glucose + 10% dialyzed FBS	432	455	444

cell viability [%], [4]
Settings	RPMI 5 mM glucose + 10% FBS	RPMI 5 mM glucose + 10% dialyzed FBS
0.000781 µM	111	120
0.00234 µM	133	125
0.00702 µM	120	109
0.0211 µM	124	126
0.0632 µM	136	130
0.19 µM	146	152
0.569 µM	130	133
1.71 µM	121	124
5.12 µM	103	90.1
15.4 µM	107	94.6
46.1 µM	21.3	31.1

C[S+](=O)([O-])OCCCCO[S+](C)(=O)[O-]
AUC of viability dose-response curve
Settings	[1]	[2]	[3]
HPLM + 10% dialyzed FBS	440	451	407
RPMI 5 mM glucose + 10% FBS	438	438	449
RPMI 5 mM glucose + 10% dialyzed FBS	436	450	462

[4], HPLM + 10% dialyzed FBS
Settings	cell viability [%]
0.000781 µM	102
0.00234 µM	119
0.00702 µM	134
0.0211 µM	124
0.0632 µM	145
0.19 µM	129
0.569 µM	142
1.71 µM	128
5.12 µM	109
15.4 µM	89.6
46.1 µM	43.1

Cc1nc2ccc(CN(C)c3ccc(C(=O)N[C@@H](CCC(=O)O)C(=O)O)s3)cc2c(=O)[nH]1
AUC of viability dose-response curve
Settings	[1]	[2]	[3]
HPLM + 10% dialyzed FBS	298	287	315
RPMI 5 mM glucose + 10% FBS	432	331	413
RPMI 5 mM glucose + 10% dialyzed FBS	295	321	305

cell viability [%]
Settings	[4]	[5]	[6]
HPLM + 10% dialyzed FBS, 0.000781 µM	90.3	119	110
HPLM + 10% dialyzed FBS, 0.00234 µM	93.1	119	120
HPLM + 10% dialyzed FBS, 0.00702 µM	101	118	101
HPLM + 10% dialyzed FBS, 0.0211 µM	103	118	111
HPLM + 10% dialyzed FBS, 0.0632 µM	64.1	120	99
HPLM + 10% dialyzed FBS, 0.19 µM	45	56.7	53.3
HPLM + 10% dialyzed FBS, 0.569 µM	41.4	42.2	46
HPLM + 10% dialyzed FBS, 1.71 µM	42.7	26.5	44.8
HPLM + 10% dialyzed FBS, 5.12 µM	35.4	24.9	41.6
HPLM + 10% dialyzed FBS, 15.4 µM	39.3	25.9	41.6
HPLM + 10% dialyzed FBS, 46.1 µM	38.3	21.4	38.7
RPMI 5 mM glucose + 10% FBS, 0.000781 µM	96.5	112	120
RPMI 5 mM glucose + 10% FBS, 0.00234 µM	115	117	113
RPMI 5 mM glucose + 10% FBS, 0.00702 µM	103	126	105
RPMI 5 mM glucose + 10% FBS, 0.0211 µM	104	115	112
RPMI 5 mM glucose + 10% FBS, 0.0632 µM	118	113	100
RPMI 5 mM glucose + 10% FBS, 0.19 µM	99	97	114
RPMI 5 mM glucose + 10% FBS, 0.569 µM	93	66.2	94.5
RPMI 5 mM glucose + 10% FBS, 1.71 µM	85.6	42.6	72.2
RPMI 5 mM glucose + 10% FBS, 5.12 µM	83.3	38.2	71.8
RPMI 5 mM glucose + 10% FBS, 15.4 µM	82.1	35.1	75.7
RPMI 5 mM glucose + 10% FBS, 46.1 µM	82.1	31.7	73.1
RPMI 5 mM glucose + 10% dialyzed FBS, 0.000781 µM	98.7	106	116
RPMI 5 mM glucose + 10% dialyzed FBS, 0.00234 µM	113	116	109
RPMI 5 mM glucose + 10% dialyzed FBS, 0.00702 µM	113	105	104
RPMI 5 mM glucose + 10% dialyzed FBS, 0.0211 µM	118	119	120
RPMI 5 mM glucose + 10% dialyzed FBS, 0.0632 µM	106	108	108
RPMI 5 mM glucose + 10% dialyzed FBS, 0.19 µM	45.9	88.9	70.9
RPMI 5 mM glucose + 10% dialyzed FBS, 0.569 µM	33.2	60.8	37.6
RPMI 5 mM glucose + 10% dialyzed FBS, 1.71 µM	35.3	32.4	25.6
RPMI 5 mM glucose + 10% dialyzed FBS, 5.12 µM	29.6	28.5	33
RPMI 5 mM glucose + 10% dialyzed FBS, 15.4 µM	32.4	27.8	33.1
RPMI 5 mM glucose + 10% dialyzed FBS, 46.1 µM	30.5	26.9	32.1
